Measured values reported in article PMC6832705, “Menthol Increases Bendiocarb Efficacy Through Activation of Octopamine Receptors and Protein Kinase A” (Molecules, 2019).

Target: T1, acetylcholinesterase (AChE)
T1 construct: gene ace1; native enzyme in collagenase-treated, dissociated terminal abdominal ganglia of males; not purified
Assay: modified Ellman assay, absorbance […] nm
Type: biochemical, Periplaneta americana
Settings: acetylthiocholine (0.1 mM stock), 15 min pre-incubation with bendiocarb, pH 7.2, 30 °C, no menthol; covalent; read-out: ED50 (the source's name)

CNC(=O)Oc1cccc2c1OC(C)(C)O2 [bendiocarb]
IC50: 100 nM
